Measured values as given in a compilation of properties of binary mixtures (doi:10.1039/b819795b).

Assay: xn = mol fraction of the nth substance listed
Details: 101 kPa

CCCCCCCC[n+]1ccn(C)c1.F[P-](F)(F)(F)(F)F + CC(C)O
speed of sound [m/s]
Details | 293.15 K | 298.15 K | 303.15 K
x1 = 0.0004 | 1156 | 1140 | 1121
x1 = 0.0009 | 1157 | 1140 | 1122
x1 = 0.0014 | 1157 | – | 1122
x1 = 0.0024 | 1158 | 1141 | 1123
x1 = 0.003 | 1158 | 1141 | 1123
x1 = 0.0053 | – | 1142 | 1125
x1 = 0.0098 | – | – | 1128
x2 = 0 | 1424 | 1408 | 1393
x2 = 0.0069 | – | 1407 | 1393
x2 = 0.0965 | 1412 | 1397 | 1384
x2 = 0.2012 | 1395 | 1382 | 1368
x2 = 0.304 | 1379 | 1366 | –
x2 = 0.4009 | 1364 | 1351 | 1339
x2 = 0.4943 | 1340 | – | –
x2 = 0.5989 | 1310 | 1296 | –
x2 = 0.6487 | – | 1279 | 1267
x2 = 0.6964 | – | 1261 | 1252
x2 = 0.7469 | – | – | 1235

CCCCCCCC[n+]1ccn(C)c1.F[P-](F)(F)(F)(F)F + CCCCCC
speed of sound [m/s]
Details | x2 = 0 | x2 = 0.0468 | x2 = 0.0712 | x2 = 0.0893 | x2 = 0.1268
293.15 K | 1424 | 1408 | 1401 | 1394 | –
298.15 K | 1408 | 1393 | 1385 | – | 1364
303.15 K | 1393 | 1378 | – | 1364 | 1349

CCCCCCCC[n+]1ccn(C)c1.F[P-](F)(F)(F)(F)F + CCCCCCC
speed of sound [m/s]
Details | x2 = 0 | x2 = 0.0074 | x2 = 0.0516 | x2 = 0.0803
293.15 K | 1424 | 1421 | 1406 | –
298.15 K | 1408 | – | 1391 | 1381
303.15 K | – | 1391 | – | 1366

CC(C)O + CCCCCCCC[n+]1ccn(C)c1.F[P-](F)(F)(F)(F)F
Details | speed of sound [m/s]
293.15 K, x1 = 1 | 1156

CCCCCC + CCCCCCCC[n+]1ccn(C)c1.F[P-](F)(F)(F)(F)F
x1 = 1
Details | speed of sound [m/s]
293.15 K | 1100
298.15 K | 1078

CCCCCCC + CCCCCCCC[n+]1ccn(C)c1.F[P-](F)(F)(F)(F)F
x1 = 1
Details | speed of sound [m/s]
293.15 K | 1153
298.15 K | 1131
303.15 K | 1110
